What was measured:
Format in all cases: physicochemical
Solubility in solvents = details: solvent
Description: Having explored the effect of substituents, we next focused on the impact of the medium. […] These findings can be explained using the reported hydrogen‐bond donor (HBD) acidity (Taft–Kamlet α‐scale) of the utilized solvents.^[ [39] ^] Such a big difference in thermal half‐life has to be associated with the proton transfer from the secondary amine (in the closed form) to the phenol group since the back relaxation from the closed form to the open conjugated form is a […] process. We hypothesize that solvents like water and methanol trigger a Grotthus‐like proton transfer mechanism which speeds up the back‐relaxation process, similar to what was previously reported for other phenol‐bearing photoswitches.^[ [40] ^]
Similar to what is observed for the other compounds, the half‐life of closed 1f in water is extremely small (Table 1). This opens the opportunity of using 1f in out‐of‐equilibrium^[ [45] ^] and dissipative water‐based systems. Moreover, irradiation of 1f triggers the photo reactions that generate its respective closed indole‐like form, which compared to the closed forms of 1a–e also has a lower value of pK^hν (Table 1) and generates a higher ΔpK a value between the open and closed forms, being 1.7 pK a units, thanks to the electron‐withdrawing effect coming from the presence of a sulfonate group.

[1] = pKa in the dark and under light irradiation; details: for pKa: water:DMSO 99:1, dark, read-out: pKa dark (open form)
Description: Since light‐induced cyclization is also associated with a change in the nature of the amino group of 1a–e, we investigated the change in their pK a upon light irradiation. This phenomenon has been already reported in the literature for other photoresponsive molecules,^[ [41], [42] ^] and it is recognized that, apart from being key in many biological processes, is a powerful tool for potential applications in catalysis^[ [43] ^] or self‐assembly.^[ [44] ^] […] Moreover, for compounds 1b and 1c, bearing methoxy groups, the change in pK a generated upon light irradiation is considerably smaller than for compounds 1d and 1e, bearing fluorine groups. This difference can be easily associated with the nature of the substituents, where for 1d–e the electron‐withdrawing effect of the fluorine favors a higher acidity of the closed isomers, contrarily to the effect of the electron‐donating groups for 1b–c.

[2] = Fatigue resistance / photostability under 365 nm irradiation; details: UV–vis absorbance kinetic experiments

Row | SMILES | pKa [1] | ΔpKa between the open and closed forms ([1]; water:DMSO 99:1) [pK a units] | Photostability on prolonged irradiation at 365 nm [2] | Solubility (Solubility in solvents)
1 | CC1(C)C(/C=C/c2ccccc2O)=Nc2ccccc21 [1a] | 4.3 | – | – | soluble in both polar and apolar solvents
2 | CC1(C)C(/C=C/c2ccccc2O)=Nc2ccc(S(=O)(=O)[O-])cc21.[K+] [1f] | 3.9 | 1.7 | – | fully soluble and fully switchable in water
3 | COc1ccccc1/C=C/C1=Nc2ccccc2C1(C)C [1g] | – | – | photodegradation of the sample | –

More lines, main results first:

Row | pKa [1] | ΔpKa between the open and closed forms ([1]; water:DMSO 99:1) [pK a units] | Photostability on prolonged irradiation at 365 nm [2] | SMILES | Solubility (Solubility in solvents)
4 | 4.6 | – | – | COc1ccc2c(c1)C(C)(C)C(/C=C/c1ccccc1O)=N2 [1b] | –
5 | 4.3 | – | – | COc1ccc(O)c(/C=C/C2=Nc3ccccc3C2(C)C)c1 [1c] | –
6 | 4.3 | – | – | CC1(C)C(/C=C/c2ccccc2O)=Nc2ccc(F)cc21 [1d] | –
7 | 4.3 | – | – | CC1(C)C(/C=C/c2cc(F)ccc2O)=Nc2ccccc21 [1e] | –
